Source: PMC12565843, “Phenolic Compounds from Hypericum cerastoides (Spach) N. Robson: Dereplication via UHPLC-HRMS/MS, Isolation, Identification, and Preliminary Biological Evaluation Focusing on Radical-Scavenging, Anti-α-Glucosidase, and Pro-Lipase Activities” (Metabolites, 2025)
“And” between values parts separate entries of the source, which are not always exact repeats. Identical values can stand only once.

Tests used:
[1] = DPPH radical-scavenging activity assay; settings: compounds and controls at 100 µM in EtOH, 30 min, 517 nm; mean ± SD
Protocol: The scavenging activity of phenolic compounds against DPPH radicals was assessed using Kokanova-Nedialkova and Nedialkov methods, with some modifications. Briefly, 300 µL of each compound in EtOH (100 µM) was mixed with 300 µL of DPPH ethanol solution (100 µM). The reaction mixture was thoroughly vortexed and left in the dark at room temperature for 30 min. The absorbance of the mixture was measured at 517 nm. The following equation calculates the ability to scavenge DPPH radicals: %DPPH radical scavenging activity=Abscontrol−Abssample/Abscontrol×100, where Abscontrol is the absorbance of the DPPH radical in EtOH, and Abssample is the absorbance of the DPPH radical solution mixed with a sample.
Positive controls were vitamin C (100 µM) and Trolox (100 µM).

[2] = ABTS radical-scavenging activity assay; settings: compounds and controls at 100 µM in EtOH, 7 min, 734 nm, mean ± SD
Protocol: For ABTS assay, the procedure followed the method of Kokanova-Nedialkova and Nedialkov with some modifications. The stock solutions included 7 mM ABTS and 2.4 mM potassium persulfate. The working solution was then prepared by mixing the two stock solutions in equal quantities and allowing them to react for 12–14 h at room temperature in the dark. The solution was then diluted by mixing 1 mL of the ABTS solution with 30 mL of ethanol. A fresh ABTS solution was prepared for each assay. Furthermore, 300 µL of each compound in EtOH (100 µM) was allowed to react with 1 mL of the ABTS solution, and the absorbance was taken at 734 nm after 7 min using a spectrophotometer. The ABTS scavenging capacity of the compound was calculated as: %ABTS radical scavenging activity=Abscontrol−Abssample/Abscontrol×100 where Abscontrol is the absorbance of the ABTS radical in ethanol, and Abssample is the absorbance of an ABTS radical solution mixed with a sample.
Vitamin C (100 µM) and Trolox (100 µM) were used as positive controls.

α-glucosidase = experiment: Anti-α-glucosidase activity assay (LC-MS, p-nitrophenyl-α-D-glucopyranoside substrate); type: biochemical; settings: five concentrations 1000-62.5 µM, NA = the compound is not active; for IC50: read-out: α-Glucosidase Inhibitory Activity (IC50 ± SD)
Protocol: The α-Glucosidase inhibitory activity was determined by LC-MS using p-nitrophenyl-α-D-glucopyranoside as the substrate, as described by Kokanova-Nedialkova et al.. The assay mixture (160 µL) was prepared accordingly to Kang et al. with some modifications. An aliquot of 20 µL of a sample in phosphate buffer (pH 6.8) containing 10% DMSO (or phosphate buffer containing 10% DMSO as a control), 100 µL phosphate buffer (pH 6.8), and 20 µL enzyme solution (0.2 U/mL α-glucosidase in phosphate buffer) were mixed and incubated at 37 °C for 15 min. Then, 20 µL of substrate solution (2.5 mM p-nitrophenyl-α-D-glucopyranoside, prepared in the same buffer) was added. The reaction was processed at 37 °C for 15 min and stopped by adding 840 µL acetonitrile (AcCN). The supernatant was then used for LC-MS analysis after centrifugation at 12,000 rpm for 10 min. The amount of p-nitrophenol released from p-nitrophenyl-α-D-glucopyranoside was quantified using liquid chromatography-[…] (LC-MS). The inhibitory rates (%) were calculated according to the formula: % α−Glucosidase inhibitory activity=Aк−Asample/Aк×100, where Aк is the area of the p-nitrophenol peak in the control, and Asample is the area of the p-nitrophenol peak in the sample.

[3] = target: T1, lipase from porcine pancreas, Type II (Sus scrofa, UniProt P00591); experiment: Assay for modulation of lipase activity (LC-MS, p-nitrophenyl laurate substrate); type: biochemical; settings: for Effect on lipase activity (in words): tested at 200-12.5 µM; for Fold increase of lipase activity compared to the control: 200 µM
T1 construct: lipase from porcine pancreas, Type II; purchased Sigma-Aldrich L3126; host or cells: porcine pancreas (tissue-derived)
T1 sequence (P00591 1-450): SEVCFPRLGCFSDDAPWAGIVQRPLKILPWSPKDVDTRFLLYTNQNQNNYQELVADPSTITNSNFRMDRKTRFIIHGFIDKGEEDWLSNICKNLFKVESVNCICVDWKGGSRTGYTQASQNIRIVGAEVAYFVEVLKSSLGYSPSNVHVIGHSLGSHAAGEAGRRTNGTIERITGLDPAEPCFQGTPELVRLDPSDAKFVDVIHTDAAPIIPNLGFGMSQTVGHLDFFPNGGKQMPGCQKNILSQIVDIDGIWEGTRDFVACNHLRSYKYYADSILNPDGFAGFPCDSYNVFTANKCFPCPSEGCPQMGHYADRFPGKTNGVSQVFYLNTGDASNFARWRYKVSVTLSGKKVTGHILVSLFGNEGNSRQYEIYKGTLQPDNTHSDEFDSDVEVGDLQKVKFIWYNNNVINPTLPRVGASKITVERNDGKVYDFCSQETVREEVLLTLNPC
Protocol: This assay was adapted from previous reports for the determination of anti-lipase and pro-lipase activity by LC-MS [14]. Briefly, lipase from porcine pancreas, Type II (Sigma-Aldrich, St. Louis, MA, USA, product L3126), was dissolved in ultra-pure water at a 5 mg/mL concentration. The supernatant was then used after centrifugation at 15,000 rpm for 10 min. The assay buffer was 100 mM Tris buffer (pH 8.2), and p-nitrophenyl laurate was used as the substrate. The substrate stock was 2 mg p-nitrophenyl laurate dissolved in 1 mL isopropanol and 4 mL 5 mM sodium acetate (pH 5.0) containing 1% Triton X-100 (Fisher Scientific, Bridgewater, NJ, USA). The mixture was heated to facilitate dissolution, thoroughly mixed, and then cooled to room temperature. The assay mixture (1 mL) contained 20 µL of a sample in DMSO (or DMSO as a control), 860 µL of Tris buffer (pH 8.2), and 30 µL of enzyme solution. The mixture was combined, shaken, and incubated at 37 °C for 15 min. Then, 90 µL of substrate solution was added and shaken again. The reaction was processed at 37 °C for 2 h and stopped by adding 800 µL CH3CN to 200 µL of the assay mixture. The supernatant was then used for LC-MS analysis after centrifugation at 15,000 rpm for 10 min. The amount of p-nitrophenol released from p-nitrophenyl laurate was quantified using LC-MS. Lipase inhibitory activity (%) was calculated according to the formula: % Lipase inhibitory activity=Aк−Asample/Aк×100, where Aк is the area of the p-nitrophenol peak in the control, and Asample is the area of the p-nitrophenol peak in the sample.
Pro-lipase activity (%) was calculated according to the formula: % Prolipase activity=Asample−Ak/Aк×100, where Aк is the area of the p-nitrophenol peak in the control, and Asample is the area of the p-nitrophenol peak in the sample.

## O=C(C=Cc1ccc(O)cc1)OC1CC(O)(C(=O)O)CC(O)C1O (centres unmarked) [HC1, coumaroylquinic acid]
[1]
  DPPH % (radical-scavenging activity): 18.95% and 18.95 ± 0.36%
[2]
  ABTS % (radical-scavenging activity): 22.12% and 22.12 ± 0.63%
α-glucosidase
  IC50: 44 ± 5 µM
[3]
  Effect on lipase activity (in words): do not inhibit lipase activity

## O=c1c(OC2OC(CO)C(O)C(O)C2O)c(-c2cc(O)c(O)c(O)c2)oc2cc(O)cc(O)c12 (centres unmarked) [HC2, myricetin-3-O-glucoside]
[1]
  DPPH % (radical-scavenging activity): 84.32% and 84.32 ± 0.23%
[2]
  ABTS % (radical-scavenging activity): 97.23% and 97.23 ± 0.45%
α-glucosidase
  α-Glucosidase Inhibitory Activity (IC50 ± SD): did not exhibit measurable inhibitory activity
[3]
  Fold increase of lipase activity compared to the control: fivefold
  Effect on lipase activity (in words): do not inhibit lipase activity

## O=c1c(OC2OC(CO)C(O)C(O)C2O)c(-c2cc(O)c(O)c(O)c2)oc2cc(O)cc(O)c12 (centres unmarked) [HC3, myricetin-3-O-galactoside]
[1]
  DPPH % (radical-scavenging activity): 82.70% and 82.70 ± 0.34%
[2]
  ABTS % (radical-scavenging activity): 96.04% and 96.04 ± 0.37%
α-glucosidase
  IC50: 206 ± 13 µM
[3]
  Fold increase of lipase activity compared to the control: fivefold
  Effect on lipase activity (in words): do not inhibit lipase activity

## CC(=O)OC1C(Oc2cc(O)cc(O)c2C(=O)c2ccccc2)OC(CO)C(O)C1O [HC4, 4,6-Dihydroxy Benzophenone-2-O-β-D-2″-Acetylglucopyranoside]
[1]
  DPPH % (radical-scavenging activity): 14.63% and 14.63 ± 0.50%
[2]
  ABTS % (radical-scavenging activity): 70.20% and 70.20 ± 0.23%
α-glucosidase
  α-Glucosidase Inhibitory Activity (IC50 ± SD): did not exhibit measurable inhibitory activity
[3]
  Effect on lipase activity (in words): did not show any significant effect on lipase activity

## COC(=O)C1(O)CC(O)C(O)C(OC(=O)C=Cc2ccc(O)c(O)c2)C1 (centres unmarked) [HC5, methyl ester of chlorogenic acid]
[1]
  DPPH % (radical-scavenging activity): 84.57% and 84.57 ± 0.27%
[2]
  ABTS % (radical-scavenging activity): 71.27% and 71.27 ± 0.08%
α-glucosidase
  α-Glucosidase Inhibitory Activity (IC50 ± SD): did not exhibit measurable inhibitory activity
[3]
  Effect on lipase activity (in words): do not inhibit lipase activity

## CC(C)C1CC(OC2OC(COC(=O)C=Cc3ccc(O)cc3)C(O)C(O)C2O)CC(=O)O1 [HC6, 4-O-{6-[(2E)-p-Hydroxycinnamoyl]-β-D-Glucopyranosyl}-6-isopropyl-tetrahydro-2H-pyran-2-one]
[1]
  DPPH % (radical-scavenging activity): 15.93% and 15.93 ± 0.33%
[2]
  ABTS % (radical-scavenging activity): 25.50% and 25.50 ± 0.12%
α-glucosidase
  IC50: 371 ± 9 µM
[3]
  Effect on lipase activity (in words): do not inhibit lipase activity

## COC(=O)CC(CC(O)C(C)C)O[C@@H]1O[C@H](COC(=O)/C=C/c2ccc(O)cc2)[C@@H](O)[C@H](O)[C@H]1O (stereo partly drawn) [HC7, Methyl 3-O-{6-[(2E)-p-hydroxycinnamoyl]-β-glucopyranosyl}-6-methyl-5-hydroxyheptanoate]
[1]
  DPPH % (radical-scavenging activity): 11.48% and 11.48 ± 0.21%
[2]
  ABTS % (radical-scavenging activity): 26.88% and 26.88 ± 0.33%
α-glucosidase
  α-Glucosidase Inhibitory Activity (IC50 ± SD): did not exhibit measurable inhibitory activity
[3]
  Effect on lipase activity (in words): did not show any significant effect on lipase activity

## Cc1c(C)c2c(c(C)c1O)CCC(C)(C(=O)O)O2 (centres unmarked) [Trolox, reference compound]
[1]
  DPPH % (radical-scavenging activity): 88.33 ± 0.33%
[2]
  ABTS % (radical-scavenging activity): 94.16% and 94.16 ± 0.32%

## O=C1O[C@H]([C@@H](O)CO)C(O)=C1O [Vit C, reference compound]
[1]
  DPPH % (radical-scavenging activity): 59.44 ± 0.42%
[2]
  ABTS % (radical-scavenging activity): 66.21 ± 0.45%
[2]; listed as Vitamin C
  ABTS % (radical-scavenging activity): 66.21%
